The text below walks through data of patent US8288385B2, “6-(3-aza-bicyclo[3.1.0]hex-3-yl)-2-phenyl-pyrimidines” (Actelion Pharmaceuticals Ltd., priority 2009, dated 2012).

This assay addresses T1, human P2Y12 receptor (Homo sapiens, UniProt Q9H244).
T1 construct: expressed in transfected cells; host or cells: Chinese Hamster Ovary (CHO) cells
The assay can be described thus: P2Y12 receptor binding assay. To be noted: CHO cells with recombinant expression of the human P2Y12 receptor; tritium-labeled 2-methyl-S-ADP; RT, 2 hours. On the procedure:
P2Y12 Receptor Binding Assay
Chinese Hamster Ovary (CHO) cells with recombinant expression of the human P2Y12 receptor were cultured in 24 well cell-culture plates. Cells were washed three times with binding buffer (50 mM Tris pH 7.4, 100 mM NaCl, 1 mM EDTA, 0.5% BSA). The cells were then incubated with 0.5 ml per well binding buffer containing tritium-labeled 2-methyl-thio-adenosine 5′-diphosphate (2-methyl-S-ADP) (between 100,000 and 300,000 dpm per well) and various concentrations of test compounds. After incubation at RT for 2 hours, cells were washed three times with binding buffer. Then, cells were solubilized by addition of 0.5 ml solubilization buffer (SDS, NaOH, EDTA). The content of each well was then transferred into beta-counter vials and 2.0 ml of Ultima Gold Scintillation liquid was added.

Structures are written as SMILES.

T1 sequence (Q9H244 whole entry): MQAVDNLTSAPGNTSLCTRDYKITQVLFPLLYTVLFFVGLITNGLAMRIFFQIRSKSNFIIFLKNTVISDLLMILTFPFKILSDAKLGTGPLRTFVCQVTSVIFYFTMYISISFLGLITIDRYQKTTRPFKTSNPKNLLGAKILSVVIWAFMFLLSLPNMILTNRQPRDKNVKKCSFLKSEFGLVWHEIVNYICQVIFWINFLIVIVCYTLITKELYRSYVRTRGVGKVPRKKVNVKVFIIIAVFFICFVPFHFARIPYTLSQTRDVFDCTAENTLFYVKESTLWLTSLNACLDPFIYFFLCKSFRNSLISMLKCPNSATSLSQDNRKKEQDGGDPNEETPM

A word on the IC50: it is the concentration at which inhibition is half-maximal. Take `CCCCOC(=O)N1CCN(C(=O)[C@H](CP(=O)(OCOC(=O)OCC)OCOC(=O)OCC)NC(=O)c2cc(N3C[C@@H]4[C@H](C3)[C@H]4C(=O)OCC)nc(-c3ccccc3)n2)CC1` [Example 54, (1α,5α,6α)-3-{6-[(R)-1-(Bis-ethoxycarbonyloxymethoxy-phosphorylmethyl)-2-(4-butoxycarbonyl-piperazin-1-yl)-2-oxo-ethylcarbamoyl]-2-phenyl-pyrimidin-4-yl}-3-aza-bicyclo[3.1.0]hexane-6-carboxylic acid ethyl ester]: the concentration for half-maximal inhibition (IC50) is 15 nM. In the case of `CCCCOC(=O)N1CCN(C(=O)C(NC(=O)c2cc(N3CC4C(C3)C4C(=O)O)nc(-c3ccccc3)n2)C(C)C)CC1C` [Example 31, (1α,5α,6β)-3-{6-[(S)-1-((R)-4-Butoxycarbonyl-3-methyl-piperazine-1-carbonyl)-2-methyl-propylcarbamoyl]-2-phenyl-pyrimidin-4-yl}-3-aza-bicyclo[3.1.0]hexane-6-carboxylic acid] it was 53 nM; in that of `CCCCOC(=O)N1CCN(C(=O)[C@@H](NC(=O)c2cc(N3C[C@@H]4[C@H](C3)[C@@H]4C(=O)O)nc(-c3ccc(C)cc3)n2)C(C)C)CC1` [Example 29, (1α,5α,6β)-3-{6-[(S)-1-(4-Butoxycarbonyl-piperazine-1-carbonyl)-2-methyl-propylcarbamoyl]-2-p-tolyl-pyrimidin-4-yl}-3-aza-bicyclo[3.1.0]hexane-6-carboxylic acid], 18 nM. Turning to `CCCCOC(=O)N1CCN(C(=O)[C@@H](NC(=O)c2cc(N3C[C@@H]4[C@H](C#N)[C@@H]4C3)nc(-c3ccccc3)n2)C(C)C)CC1` [Example 21, 4-((S)-2-{[6-((1α,5α,6β)-6-Cyano-3-aza-bicyclo[3.1.0]hex-3-yl)-2-phenyl-pyrimidine-4-carbonyl]-amino}-3-methyl-butyryl)-piperazine-1-carboxylic acid butyl ester], the IC50 was found to be 10 nM.

As to `CCCCOC(=O)N1CCN(C(=O)[C@@H](NC(=O)c2cc(N3C[C@@H]4[C@H](C3)[C@@H]4C(=O)O)nc(-c3ccccc3)n2)C(C)C)CC1` [Example 11, (1α,5α,6β)-3-{6-[(S)-1-(4-Butoxycarbonyl-piperazine-1-carbonyl)-2-methyl-propylcarbamoyl]-2-phenyl-pyrimidin-4-yl}-3-aza-bicyclo[3.1.0]hexane-6-carboxylic acid], the IC50 turned out to be 14 nM. Consider `CCCCOC(=O)N1CCN(C(=O)[C@H](CP(=O)(OCOC(C)=O)OCOC(C)=O)NC(=O)c2cc(N3C[C@@H]4[C@H](C3)[C@H]4C(=O)OCC)nc(-c3ccccc3)n2)CC1` [Example 52, (1α,5α,6α)-3-{6-[(R)-1-(Bis-acetoxymethoxy-phosphorylmethyl)-2-(4-butoxycarbonyl-piperazin-1-yl)-2-oxo-ethylcarbamoyl]-2-phenyl-pyrimidin-4-yl}-3-aza-bicyclo[3.1.0]hexane-6-carboxylic acid ethyl ester], for which the IC50 worked out at 4 nM. In the case of `CCCCOC(=O)N1CCN(C(=O)[C@H](CCC(=O)O)NC(=O)c2cc(N3C[C@@H]4[C@H](C3)[C@@H]4NC(=O)OC(C)(C)C)nc(-c3ccccc3)n2)CC1` [Example 6, 4-((S)-2-{[6-((1α,5α,6β)-6-tert-Butoxycarbonylamino-3-aza-bicyclo[3.1.0]hex-3-yl)-2-phenyl-pyrimidine-4-carbonyl]-amino}-4-carboxy-butyryl)-piperazine-1-carboxylic acid butyl ester], the IC50 was found to be 7.3 nM. With `CCCCOC(=O)N1CCN(C(=O)[C@@H](NC(=O)c2cc(N3C[C@@H]4[C@@H](CCC(=O)O)[C@@H]4C3)nc(-c3ccccc3)n2)C(C)C)CC1` [Example 27, 4-[(S)-2-({6-[(1α,5α,6α)-6-(2-Carboxy-ethyl)-3-aza-bicyclo[3.1.0]hex-3-yl]-2-phenyl-pyrimidine-4-carbonyl}-amino)-3-methyl-butyryl]-piperazine-1-carboxylic acid butyl ester], the IC50 stood at 151 nM. Consider `CCCCOC(=O)N1CCN(C(=O)[C@H](CCC(=O)O)NC(=O)c2cc(N3C[C@@H]4[C@@H](N)[C@@H]4C3)nc(-c3ccccc3)n2)CC1` [Example 7], for which the IC50 was found to be 7.5 nM. As for `CC(C)[C@H](NC(=O)c1cc(N2C[C@@H]3C(C(=O)O)[C@@H]3C2)nc(-c2ccccc2)n1)C(=O)N1CCN(C(=O)OCc2ccccc2)[C@H](C)C1` (stereo partly drawn) [Example 32, (1α,5α,6β)-3-{6-[(S)-1-((R)-4-Benzyloxycarbonyl-3-methyl-piperazine-1-carbonyl)-2-methyl-propylcarbamoyl]-2-phenyl-pyrimidin-4-yl}-3-aza-bicyclo[3.1.0]hexane-6-carboxylic acid], the IC50 is 477 nM. `CCCCOC(=O)N1CCN(C(=O)[C@H](Cc2ccccc2)NC(=O)c2cc(N3C[C@@H]4[C@H](C3)[C@@H]4C(=O)O)nc(-c3ccccc3)n2)CC1` [Example 45, (1α,5α,6β)-3-{6-[(S)-1-Benzyl-2-(4-butoxycarbonyl-piperazin-1-yl)-2-oxo-ethylcarbamoyl]-2-phenyl-pyrimidin-4-yl}-3-aza-bicyclo[3.1.0]hexane-6-carboxylic acid]: the IC50 amounted to 255 nM.
